Common to all, as to experiment: NCI tumour cell line growth inhibition, 48 h
In test [1] the test system is UO-31 renal.
For test [2], the system named is OVCAR-4 ovarian.
Test [3] has as its system OVCAR-5 ovarian.
Test [4] concerns EKVX NSCLC.
Test [5] has as its system SR leukemia.
Test [6] relates to KM20L2 colon.
Test [7] deals with CCRF-CEM leukemia.
In test [8] the test system is RPMI-8226 leukemia.
Test [9] concerns M19-MEL melanoma.
Test [10] concerns SF-295 CNS.
Test [11] has as its system M14 melanoma.

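Compound exposure: 48 hours, 5 concentrations, 96-well plates. TGI: concentration producing complete growth inhibition.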

Consider `O=C(/C=C(\O)C(=O)O)/C=C(\O)c1ccc(Cl)cc1`, for which the TGI in test [1], in [2], in [3], in test [4], in [5] and in test [6] was above 100 µM each time. Further, the TGI in test [7], in [8], in test [9], in test [10] and in test [11] was above 100 µM in each case.

`Cc1cc(C)c(-c2noc(-c3ccc(Cl)cc3)c2C2=NCCN2)c(C)c1`: the TGI in test [1] is 46.9 µM; in test [2], above 100 µM; in test [3], above 100 µM; in [4], 71.8 µM; in test [5], 48 µM; in test [6], 54 µM. For the same molecule, the TGI in test [7] was 74.7 µM; in test [8], 50.6 µM; in [9], above 100 µM; in [10], 27.6 µM; in test [11] it was 27 µM.

Turning to `CCCCc1c2c(nc3c1CCc1cc(C=O)c(N)nc1-3)/C(=C/c1ccccc1)CCC2`, the TGI in test [1], in test [2], in [3], in test [4], in test [5] and in [6] was above 100 µM each time. Moreover, the TGI in test [7], in [8], in test [9], in [10] and in [11] was above 100 µM each time.

In the case of `COc1cc2c3c(c1OC)C1(C=CC(=O)C=C1)CC3N(C(=O)OC(C)(C)C(Cl)(Cl)Cl)CC2` (configuration not stated), the TGI in test [1] turned out to be 28.5 µM; in test [2], 40.3 µM; in [3] it was 38.4 µM; in test [4] it was 45.2 µM; in [5], 23.4 µM; in test [6], 25.2 µM. Also, the TGI worked out at 87.7 µM in test [7]; 9.04 µM in test [8]; 24.3 µM in test [9]; 28.9 µM in test [10]; 28.8 µM in test [11].

In the case of `COC1=C(C(=O)OC(C)(C)C)C23CCCCC2(C(C(=O)OC(C)(C)C)=C(OC)C3C(=O)OC(C)(C)C)C1C(=O)OC(C)(C)C` (configuration not stated), the TGI in test [1], in test [2], in test [3], in test [4], in [5] and in test [6] was above 100 µM in each case. Further, the TGI in test [7], in test [8], in test [9], in test [10] and in test [11] was above 100 µM each time.

Consider `COc1ccc(-c2cc(-c3ccco3)c(C#N)c(=O)n2C2OC(OC(=O)c3ccccc3)C(OC(=O)c3ccccc3)C2OC(=O)c2ccccc2)cc1` (configuration not stated), for which the TGI in test [1], in test [2], in [3], in test [4], in [5] and in test [6] was above 100 µM throughout. The TGI in test [7], in [8], in test [9], in test [10] and in test [11] was above 100 µM throughout.

For the molecule `COC(=O)CC[C@@H](NC(=O)C(C)NC(=O)COC1C(O)C(COC(=O)CCCCCCCCCCNC(=O)c2ccc([N+](=O)[O-])c3[nH]c4cc(Br)ccc4c(=O)c23)OC(OCc2ccccc2)C1NC(C)=O)C(N)=O` (some centres not stated), the TGI in test [1], in test [2], in [3], in test [4], in test [5] and in [6] was above 100 µM in each case. The TGI in test [7], in test [8], in test [9], in [10] and in test [11] was above 100 µM in each case.

For the molecule `NNC(=S)N/N=C(\c1nc2ccc(Cl)cc2[nH]c1=O)C(O)c1ccc(Cl)cc1Cl` (configuration not stated), the TGI in [1], in test [2], in test [3], in [4], in [5] and in test [6] was above 100 µM in each case. Also, the TGI in test [7], in test [8], in test [9], in test [10] and in [11] was above 100 µM each time.

Take `O=C(O)C(=O)/C=C\c1ccc(Cl)cc1`: the TGI in test [1], in test [2], in [3], in test [4], in [5] and in [6] was above 100 µM each time. In addition, the TGI in [7], in [8], in test [9], in test [10] and in [11] was above 100 µM each time.

Consider `Clc1cc(Cl)c2n[se]nc2c1`, for which the TGI in test [1], in test [2], in [3], in test [4], in test [5] and in test [6] was above 100 µM throughout. The TGI in test [7], in [8], in test [9], in [10] and in [11] was above 100 µM each time.

Turning to `COc1cc(C=C2C(=O)OC(C)(C)OC2=O)cc(OC)c1OC`, the TGI in [1], in test [2], in [3], in [4], in test [5] and in test [6] was above 100 µM in each case. For the same molecule, the TGI in test [7], in test [8], in [9], in test [10] and in test [11] was above 100 µM throughout.

In the case of `COC(=O)c1ccc2n[se]nc2c1`, the TGI in test [1], in test [2], in [3], in [4], in test [5] and in [6] was above 100 µM in each case. Besides, the TGI in test [7], in [8], in [9], in [10] and in test [11] was above 100 µM throughout.
